Laboratory results reported in patent publication US20250034196A1, “ESTER DERIVATIVES OF N4-HYDROXYCYTIDINE AND USE THEREOF” (priority 2021, published 2025).

How the values were obtained:
in vitro [1] = format: in vitro ADME; settings: microsomes, pH 7.4
Method: (§1) Preparation of Solutions: Stock solution (10 mM) of each of test compounds was prepared in DMSO. The stock solution for each compound was then diluted into 100 μM with acetonitrile.
(§2) Microsome Incubations: Incubation mixtures were prepared in a total volume of 200 μL with final component concentrations as follows: 0.1M PBS (pH 7.4), NADPH (2 mM) and liver microsomes (0.2 mg/mL) as well as test compound (1 μM) or Molnupiravir (1 μM) as a positive control, wherein the NADPH was added after a 5-min preincubation of all other components at 37° C. Pipette-mixed to achieve a homogenous suspension and immediately transferred 20 μL incubate as a 0 min sample to wells in a “Quenching” plate followed by adding 200 μL of acetonitrile with metolazone as IS and pipette-mixing. At 2, 5, 10, and 45 min, pipette-mixed the incubate and serially transfer samples of 20 μL incubate per time point to wells in a separate “Quenching” plate followed by adding 200 μL of acetonitrile with metolazone as IS and pipette-mixing.
(§3) Sample Analysis: The 96-well plate was centrifuged at 6000 g for 10 min. The supernatant was injected onto the LC-MS/MS system for analysis.

in vitro [2] = format: in vitro ADME; settings: plasma
Method: as §1
Plasma Incubations: Plasma incubations were conducted in duplicate in 96-well plate at 37° C. Plasma was prewarmed in a total volume of 198 μL for 5 min at 37° C., then added 2 μL of 100 μM test compound into an incubation well containing plasma, pipette-mixed to achieve a homogenous suspension and immediately transferred 20 μL incubate as a 0 min sample to wells in a “Quenching” plate followed by adding 200 μL of acetonitrile with metolazone as internal standard (IS) and pipette-mixing. At 2, 5, 60, and 90 min, pipette-mixed the incubate and serially transfer samples of 20 μL incubate per time point to wells in a separate “Quenching” plate followed by adding 200 μL of acetonitrile with metolazone as IS and pipette-mixing.
as §3

in vivo = assay: in vivo; set-up: species or system Beagle Dogs; settings: dog, po, 22 mg/kg; for AUC(0-inf): AUCINF of CH2107 (Molnupiravir); for AUC(0-t): AUClast of CH2107 (Molnupiravir); for Cmax: Cmax of CH2107 (Molnupiravir); for MRT inf: MRTINF of CH2107 (Molnupiravir); for half-life: T1/2 of CH2107 (Molnupiravir); for Tmax: Tmax of CH2107 (Molnupiravir)
Method: Example 174: Pharmacokinetic Study of EX-2 (CH2101), Molnupiravir (CH2017) and its Metabolite NHC (CH2018) Following a Single PO Administration of EX-2 (CH2101) or Molnupiravir (CH2017) in Male and Female Beagle Dogs
Both test compounds were prepared in 1% methyl cellulose (400 cps, SIGMA, SLCF9694) solution in purified water.
A total of 6 male+6 female Beagle Dogs, approximately 7-13 kg of bodyweight, were originally purchased from Marshall Biotechnology Co., Ltd. The animals were fasted overnight prior to dosing and food was re-provided after 4 hours post dosing.
The animals were restrained manually, and approximately 1 mL of blood at each time point was collected into pre-cooled EDTA-K2 tubes via cephalic or saphenous veins. Blood samples were centrifuged at 4° C. (4000 rpm. 5 min) to obtain plasma within 30 min after sample collection. All samples were stored at approximately −80° C. until analysis. The backup samples will be discarded after the in vivo experiment has been completed for two months unless requested.

Microsome stability = format: in vitro ADME, Monkey; settings: Monkey liver microsomes 0.2 mg/mL, NADPH, 1 μM
Method: as §1, §2, §3

SARS-CoV-2 = settings: 800 mg twice a day for 5 days, early infected patients; cited from earlier work
in vitro [3] = settings: African green monkey
[4] = both sexes, beagle, Plasma concentration of CH2107 (Molnupiravir)
[5] = female, beagle, Plasma concentration of CH2107 (Molnupiravir)
[6] = male, beagle, Plasma concentration of CH2107 (Molnupiravir)

SMILES: CC(C)C(=O)OC[C@H]1O[C@@H](n2ccc(NO)nc2=O)[C@H](O)[C@@H]1O [Molnupiravir]
- half-life at 1 µM (in vitro [1]; dog): 3.9 min
- half-life at 1 µM (in vitro [1]; human): 71.3 min
- half-life at 1 µM (in vitro [1]; mouse): 5.6 min
- half-life at 1 µM (in vitro [1]; rat): 13.8 min
- half-life at 1 µM (in vitro [2]; dog): 39.4 min
- half-life at 1 µM (in vitro [2]; human): 66.2 min
- half-life at 1 µM (in vitro [2]; monkey): 25.8 min
- half-life at 1 µM (in vitro [2]; mouse): 25.8 min
- half-life at 1 µM (in vitro [2]; rat): 3.3 min
- AUC(0-inf) (in vivo; both sexes, Beagle): 932 ng·h/mL
- AUC(0-t) (in vivo; both sexes, Beagle): 930 ng·h/mL
- Cmax (in vivo; both sexes, Beagle): 1320 ng/mL
- MRT inf (in vivo; both sexes, Beagle): 38.9 min
- half-life (in vivo; both sexes, Beagle): 25.2 min
- concentration at 0.083 hr (in vivo; [4]): 496 ng/mL
- concentration at 0.25 hr (in vivo; [4]): 1300 ng/mL
- concentration at 0.5 hr (in vivo; [4]): 1010 ng/mL
- concentration at 1 hr (in vivo; [4]): 230 ng/mL
- concentration at 2 hr (in vivo; [4]): 28.2 ng/mL
- concentration at 4 hr (in vivo; [4]): 4.75 ng/mL
- concentration at 6 hr (in vivo; [4]): 5.45 ng/mL
- concentration at 8 hr (in vivo; [4]): 1.08 ng/mL
- Tmax (in vivo; both sexes, beagle): 18.8 min
- AUCmale/female of CH2107 (Molnupiravir) (in vivo; both, Beagle): 171%
- AUCmale/female of EX-1/NHC/CH2018 (in vivo; both, Beagle): 128%
- Plasma concentration of EX-1/NHC/CH2018 (in vivo; both, Beagle, 0.083 hr): 527 ng/mL
- Plasma concentration of EX-1/NHC/CH2018 (in vivo; both, Beagle, 0.25 hr): 5653 ng/mL
- Plasma concentration of EX-1/NHC/CH2018 (in vivo; both, Beagle, 0.5 hr): 8040 ng/mL
- Plasma concentration of EX-1/NHC/CH2018 (in vivo; both, Beagle, 1 hr): 8648 ng/mL
- Plasma concentration of EX-1/NHC/CH2018 (in vivo; both, Beagle, 2 hr): 4038 ng/mL
- Plasma concentration of EX-1/NHC/CH2018 (in vivo; both, Beagle, 4 hr): 970 ng/mL
- Plasma concentration of EX-1/NHC/CH2018 (in vivo; both, Beagle, 6 hr): 244 ng/mL
- Plasma concentration of EX-1/NHC/CH2018 (in vivo; both, beagle, 8 hr): 105 ng/mL
- Plasma concentration of EX-1/NHC/CH2018 (in vivo; both, beagle, 24 hr): 18.4 ng/mL
- AUCINF of CH2107 (Molnupiravir) (in vivo; female, Beagle): 778 ng·h/mL
- AUClast of CH2107 (Molnupiravir) (in vivo; female, Beagle): 778 ng·h/mL
- AUC(0-inf) (in vivo; female, Beagle): 598 ng·h/mL
- AUC(0-t) (in vivo; female, Beagle): 596 ng·h/mL
- Cmax (in vivo; female, Beagle): 1080 ng/mL
- Plasma concentration of CH2107 (Molnupiravir) (in vivo; female, beagle, 0.5 hr): 693 ng/mL
- Plasma concentration of CH2107 (Molnupiravir) (in vivo; female, beagle, 1 hr): 120 ng/mL
- Plasma concentration of CH2107 (Molnupiravir) (in vivo; female, beagle, 4 hr): 8.06 ng/mL
- Plasma concentration of CH2107 (Molnupiravir) (in vivo; female, beagle, 6 hr): 5.45 ng/mL
- Plasma concentration of CH2107 (Molnupiravir) (in vivo; female, beagle, 8 hr): 1.08 ng/mL
- concentration at 0.5 hr (in vivo; [5]): 499 ng/mL
- concentration at 1 hr (in vivo; [5]): 207 ng/mL
- concentration at 4 hr (in vivo; [5]): 8.06 ng/mL
- concentration at 6 hr (in vivo; [5]): 5.45 ng/mL
- concentration at 8 hr (in vivo; [5]): 1.08 ng/mL
- Tmax (in vivo; female, beagle): 30 min
- AUCINF of CH2107 (Molnupiravir) (in vivo; male, Beagle): 1246 ng·h/mL
- AUClast of CH2107 (Molnupiravir) (in vivo; male, Beagle): 1245 ng·h/mL
- Cmax of CH2107 (Molnupiravir) (in vivo; male, Beagle): 1680 ng/mL
- MRTINF of CH2107 (Molnupiravir) (in vivo; male, Beagle): 34 min
- T1/2 of CH2107 (Molnupiravir) (in vivo; male, Beagle): 21.1 min
- Plasma concentration of CH2107 (Molnupiravir) (in vivo; male, Beagle, 0.25 hr): 1680 ng/mL
- AUC(0-inf) (in vivo; male, Beagle): 1100 ng·h/mL
- AUC(0-t) (in vivo; male, Beagle): 1100 ng·h/mL
- MRT inf (in vivo; male, Beagle): 27.7 min
- half-life (in vivo; male, Beagle): 12.7 min
- Plasma concentration of CH2107 (Molnupiravir) (in vivo; male, beagle, 0.5 hr): 1430 ng/mL
- Plasma concentration of CH2107 (Molnupiravir) (in vivo; male, beagle, 2 hr): 11.1 ng/mL
- Plasma concentration of CH2107 (Molnupiravir) (in vivo; male, beagle, 4 hr): 1.44 ng/mL
- Cmax (in vivo; male, beagle): 1450 ng/mL
- concentration at 0.25 hr (in vivo; [6]): 1450 ng/mL
- concentration at 0.5 hr (in vivo; [6]): 1420 ng/mL
- concentration at 2 hr (in vivo; [6]): 9.81 ng/mL
- concentration at 4 hr (in vivo; [6]): 1.44 ng/mL
- Tmax (in vivo; male, beagle): 15 min
- T1/2 (Microsome stability): 4.7 min
- Reduction in patients progressing into hospitalizations (SARS-CoV-2): 50%
- CC50 at 4 days (in vitro [3]): > 100 µM
